The source of these data is US20050063999A1, “Use of at least one (dihydro)jasmonic acid derivative as a desquamating agent” (priority 2003, published 2005).

This assay concerns stratum corneum. The experiment in a line: Desquamating power: count of corneocytes released from isolated stratum corneum discs after incubation with the test compound. Format: cell-based. Particulars: 1 % by weight compound in PBS buffer + 0.1% Triton X100, pH 7.4, 37° C., 24 hours, with stirring. Here is the method:
The desquamating power of the compound prepared in Example 1 above was studied. This test comprised counting the corneocytes released after incubating batches of stratum corneum, isolated by trypsin/heat from plastic surgery operations, in the presence of the test compound.
Discs of stratum corneum 4 mm in diameter were cut out with a punch and placed at the bottom of a 96-well plate. Two different stratum corneum samples were used.
A solution was prepared comprising 1 % by weight of compound of Example 1 in a PBS buffer supplemented at 0.1% with Triton X100. The pH of the solution was readjusted to 7.4.
50 microliters of test solution or of control solution (PBS buffer supplemented at 0.1% with Triton X100) were added to each well. The experiment was repeated three times. The mixture was incubated at 37° C., with stirring, for 24 hours.
10 microliters of solution were then collected and placed in a Mallassez cell. The corneocytes released were counted under a microscope.
The following results were obtained, which express the mean, for the three trials, of the number of corneocytes released per microliter. The corneocyte fragments were not counted.

Each structure is given as a SMILES string.

For the molecule `CCCCCC1C(CC(=O)O)CCC1OC` (racemic) [Compound of Example 1], under “stratum corneum Sample No. 1, control 6 ± 1”, the “number of corneocytes released per microliter, mean (3 trials per sample), Sample No. 1” value was found to be 17 ± 6 per microliter. For the same molecule, the “number of corneocytes released per microliter, mean (3 trials per sample), Sample No. 2” value (stratum corneum Sample No. 2, control 6 ± 2) stood at 16 ± 6 per microliter.
